{
  "source": "patent US8669255B2",
  "about": "“Substituted octahydropyrrolo[1,2-a]pyrazines as calcium channel blockers” (AbbVie Inc., priority 2011, dated 2014)",
  "tested_on": "neuropathic pain (chronic constriction injury, CCI)",
  "assay": "In vivo assessment of analgesic effect against neuropathic pain (Bennett model, chronic constriction injury, tactile allodynia with von Frey filaments)",
  "conditions": "Rattus norvegicus, po, 1 h, male Sprague Dawley rats, 10 mg/kg orally, mechanical allodynia 60 minutes following administration, percentage of maximum possible effect from log g PWT, read-out: % MPE",
  "method": "(ii) Vivo Assessment of Analgesic Effect Against Neuropathic Pain (Bennett Model)\nAnimals were prepared for testing, by use of a surgical procedure that induces neuropathic pain in one paw. IACUC guidelines for rodent survival surgery were followed. All surgical procedures were conducted on a clean, uncluttered surgical station. The area was wiped with a 70% ethanol solution before and after use. All instruments were sterilized by either autoclave or chemical sterilant (such as 2% glutaraldehyde>10 hours). Surgeons wore sterile gloves (for the initial procedure), clean lab coat or scrubs, hairnet or cap, and a half-mask respirator (when not working under a hood). Surgeons thoroughly washed their hands prior to donning sterile gloves. Gloves were disinfected in-between animals by cleansing with povidone iodine, chlorhexidine or 70% alcohol for at least 30 seconds. If multiple surgeries were performed, the instruments were cleaned and sterilized between procedures with hot glass beads (>10 seconds). To prevent thermal or chemical burns, the instruments were cooled by rinsing in sterile saline before use.\nMale, Sprague Dawley® rats, 175-200 g were used for surgeries. To minimize post-operative dehydration/maintain blood volume during the surgery, warmed sterile saline or Lactate Ringers solution at 10-15 mL/kg was administered subcutaneously immediately before or after surgery. This facilitates better renal function and presumably anesthesia product excretion post surgery. For all surgical procedures, anesthesia was induced with 4-5% isoflurane. Anesthesia was maintained during surgery with 1-3% isoflurane. Following induction, the surgical site was carefully shaved and the exposed area was aseptically prepared with povidone-iodine scrub solution and 70% ethanol 2-3 times.\nChronic constriction injury (CCI), a model of neuropathic pain, was produced by following the method of Bennett and Xie (Bennett, G., et al. Pain, 1988, 33, 87-107). After site sterilization and anesthetic procedures outline above were completed, a 1.5 cm incision is made at the mid-thigh level to expose the biceps femoris and gluteous superficialis (right side), which were then separated by blunt dissection. The common sciatic nerve was exposed, isolated, and loosely ligated by four 5-0 chromic gut ligatures with <1 mm spacing between each. The surgical site was closed in layers—muscle is closed with 6.0 absorbable sutures, and the skin closed with wound clips. Animals were allowed to recover on a warming plate and were returned to their home cages when fully ambulatory. Animals were not be used for testing until at least 10 days following surgery.\nTo measure mechanical sensitivity, tactile allodynia was measured using calibrated von Frey filaments (Stoelting, Wood Dale, Ill.) as described by Chaplan et al. (Chaplan S., et al. J of Neuroscience Methods 1994, 53, 55-63). Filament strengths used were: 0.4, 0.6, 1.0, 2, 4, 6, 8, and 15 g. Rats were placed into inverted individual plastic containers (20×12.5×20 cm) on top of a suspended wire mesh grid, and acclimated to the test chambers for at least 20 minutes. Filaments were applied perpendicular to the mid-plantar paw surface with enough force to cause slight buckling and held in place for 6-8 seconds. Positive responses included an abrupt withdrawal of the paw from the stimulus or flinching behavior immediately following removal of the stimulus. The maximum force applied was 15 g. The 50% paw withdrawal threshold (PWT) was calculated in grams (g) using the up-down method of Dixon (Dixon W. Ann Rev Pharmacol Toxicol 1980, 20, 441-462). […] All compounds were orally administered at 10 mg/kg in 10% dimethyl sulfoxide/polyethylene glycol at a volume of 2.0 mL/kg, and mechanical allodynia was determined 60 minutes following compound administration. […]",
  "data": [
    {"smiles": "CN[C@@H](C(=O)N1CCN2C[C@H](Oc3cnc(C4CC4)cn3)C[C@H]2C1)c1cccc(C(F)(F)F)c1", "note": "[Example 187, (2R)-1-[(7R,8aS)-7-[(5-cyclopropylpyrazin-2-yl)oxy]hexahydropyrrolo[1,2-a]pyrazin-2(1H)-yl]-2-(methylamino)-2-[3-(trifluoromethyl)phenyl]ethanone]", "values": [
      {"measurement": "inhibition in vivo at 10 mg/kg", "value": 67, "unit": "%"}
    ]},
    {"smiles": "O=C(c1cc(F)c(Cl)cc1F)N1CCN2C[C@H](Oc3cnc(C4CC4)cn3)C[C@H]2C1", "note": "[Example 73, (4-chloro-2,5-difluorophenyl)[(7R,8aS)-7-[(5-cyclopropylpyrazin-2-yl)-oxy]hexahydropyrrolo[1,2-a]pyrazin-2(1H)-yl]methanone]", "values": [
      {"measurement": "inhibition in vivo at 10 mg/kg", "value": 48, "unit": "%"}
    ]},
    {"smiles": "O=C(c1ccc(F)c(C(F)(F)F)c1)N1CCN2C[C@H](Oc3cnc(C4CC4)cn3)C[C@H]2C1", "note": "[Example 55, [(7R,8aS)-7-[(5-cyclopropylpyrazin-2-yl)oxy]hexahydropyrrolo[1,2-a]-pyrazin-2(1H)-yl][4-fluoro-3-(trifluoromethyl)phenyl]methanone]", "values": [
      {"measurement": "inhibition in vivo at 10 mg/kg", "value": 31, "unit": "%"}
    ]},
    {"smiles": "O=C(c1cccc(C(F)(F)F)c1F)N1CCN2C[C@H](Oc3cnc(C4CC4)cn3)C[C@H]2C1", "note": "[Example 80, [(7R,8aS)-7-[(5-cyclopropylpyrazin-2-yl)oxy]hexahydropyrrolo[1,2-a]-pyrazin-2(1H)-yl][2-fluoro-3-(trifluoromethyl)phenyl]methanone]", "values": [
      {"measurement": "inhibition in vivo at 10 mg/kg", "value": 31, "unit": "%"}
    ]},
    {"smiles": "O=C(c1cccc(OC(F)(F)F)c1)N1CCN2C[C@H](Oc3cnc(C4CC4)cn3)C[C@H]2C1", "note": "[Example 81, [(7R,8aS)-7-[(5-cyclopropylpyrazin-2-yl)oxy]hexahydropyrrolo[1,2-a]-pyrazin-2(1H)-yl][3-(trifluoromethoxy)phenyl]methanone]", "values": [
      {"measurement": "inhibition in vivo at 10 mg/kg", "value": 39, "unit": "%"}
    ]},
    {"smiles": "CN[C@H](C(=O)N1CCN2C[C@H](Oc3cnc(C4CC4)cn3)C[C@H]2C1)c1cccc(C(F)(F)F)c1", "note": "[Example 186, (2S)-1-[(7R,8aS)-7-[(5-cyclopropylpyrazin-2-yl)oxy]hexahydropyrrolo[1,2-a]pyrazin-2(1H)-yl]-2-(methylamino)-2-[3-(trifluoromethyl)phenyl]ethanone]", "values": [
      {"measurement": "inhibition in vivo at 10 mg/kg", "value": 91, "unit": "%"}
    ]},
    {"smiles": "O=C(c1cccc(C(F)(F)F)c1)N1CCN2C[C@H](Oc3cnc(C4CC4)cn3)C[C@H]2C1", "note": "[Example 68, [(7R,8aS)-7-[(5-cyclopropylpyrazin-2-yl)oxy]hexahydropyrrolo[1,2-a]-pyrazin-2(1H)-yl][3-(trifluoromethyl)phenyl]methanone]", "values": [
      {"measurement": "inhibition in vivo at 10 mg/kg", "value": 28, "unit": "%"}
    ]},
    {"smiles": "O=C(c1cc(C(F)(F)F)ccc1Cl)N1CCN2C[C@H](Oc3cnc(C4CC4)cn3)C[C@H]2C1", "note": "[Example 72, [2-chloro-5-(trifluoromethyl)phenyl][(7R,8aS)-7-[(5-cyclopropylpyrazin-2-yl)oxy]hexahydropyrrolo[1,2-a]pyrazin-2(1H)-yl]methanone]", "values": [
      {"measurement": "inhibition in vivo at 10 mg/kg", "value": 20, "unit": "%"}
    ]},
    {"smiles": "O=C(c1cccc(C(F)(F)F)c1)N1CC(=O)N2C[C@H](Oc3cnc(C4CC4)cn3)C[C@H]2C1", "note": "[Example 178, (7R,8aS)-7-[(5-cyclopropylpyrazin-2-yl)oxy]-2-[3-(trifluoromethyl)-benzoyl]hexahydropyrrolo[1,2-a]pyrazin-4(1H)-one]", "values": [
      {"measurement": "inhibition in vivo at 10 mg/kg", "value": 28, "unit": "%"}
    ]},
    {"smiles": "O=C(/C=C/c1ccc(F)c(C(F)(F)F)c1)N1CCN2C[C@H](Oc3cnc(C4CC4)cn3)C[C@H]2C1", "note": "[Example 154, (2E)-1-[(7R,8aS)-7-[(5-cyclopropylpyrazin-2-yl)oxy]hexahydropyrrolo[1,2-a]pyrazin-2(1H)-yl]-3-[4-fluoro-3-(trifluoromethyl)phenyl]prop-2-en-1-one]", "values": [
      {"measurement": "inhibition in vivo at 10 mg/kg", "value": 0, "unit": "%"}
    ]}
  ]
}
